Measured values as given in US9833497B2, “Human originated EGF domain proteins and use of the same” (CHENGDU SOURCEBIO LIMITED-LIABILITY COMPANY, priority 2013, dated 2017).

Key:
Assay type in all cases: cell-based
Pseudomonas aeruginosa = assay: MIC against Gram-negative bacteria: Pseudomonas aeruginosa; details: 5×10^5 CFU/mL
In short: (§1)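 MIC = lowest concentration of recombinant protein showing no growth. Test proteins: purified human-derived EGF domain proteins, two-fold dilution series, three wells per concentration; inoculum 5×10^5 CFU/mL in LB; incubation 37° C with shaking at 175 rpm.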

Proteus vulgaris = assay: MIC against Gram-negative bacteria: Proteus vulgaris; details: 5×10^5 CFU/mL
In short: as §1

Aeromonas hydrophila = assay: MIC against Gram-negative bacteria: Aeromonas hydrophila; details: 5×10^5 CFU/mL
In short: as §1

E. coli BL21 = assay: MIC against Gram-negative bacteria: E. coli BL21; details: 5×10^5 CFU/mL
In short: as §1

Enterobacter cloacae = assay: MIC against Gram-negative bacteria: Enterobacter cloacae; details: 5×10^5 CFU/mL
In short: as §1

Moraxella catarrhalis = assay: MIC against Gram-negative bacteria: Moraxella catarrhalis; details: 5×10^5 CFU/mL
In short: as §1

E. coli DH5α = assay: Antibacterial activity: MIC and growth curve against E. coli DH5α in 96-well plate; details: minimal inhibitory concentration against E. coli DH5α; 96-well plate, 5×10^5 CFU/mL, 37° C., judged after 8 h
In short: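 MIC taken as lowest protein level with no bacterial growth, tracked by A600 every 30 min during 37 °C, 175 rpm culture. Two-fold protein series 50-12.5 μg/mL final, triplicate wells, against 5×10^5 CFU/mL of LB-washed mid-log cells.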

Serratia marcescens = assay: MIC against Gram-negative bacteria: Serratia marcescens; details: 5×10^5 CFU/mL
In short: as §1

Proteus mirabilis = assay: MIC against Gram-negative bacteria: Proteus mirabilis; details: 5×10^5 CFU/mL
In short: as §1

Citrobacter diversus = assay: MIC against Gram-negative bacteria: Citrobacter diversus; details: 5×10^5 CFU/mL
In short: as §1

Klebsiella pneumonia = assay: MIC against Gram-negative bacteria: Klebsiella pneumonia; details: 5×10^5 CFU/mL
In short: as §1

[1] = P. aeruginosa, 10 h cultivation at 37° C.
[2] = P. vulgaris, 10 h cultivation at 37° C.
[3] = A. hydrophila, 10 h cultivation at 37° C.
[4] = E. coli BL21, 10 h cultivation at 37° C.
[5] = E. cloacae, 10 h cultivation at 37° C.
[6] = M. catarrhalis, 10 h cultivation at 37° C.
[7] = S. marcescens, 10 h cultivation at 37° C.
[8] = P. mirabilis, 10 h cultivation at 37° C.
[9] = C. diversus, 10 h cultivation at 37° C.
[10] = K. pneumonia, 10 h cultivation at 37° C.
[11] = 10 h cultivation at 37° C., two-fold serial dilution
[12] = Pseudomonas aeruginosa, 96-well plate, 37° C., 10 h
[13] = Proteus vulgaris, 96-well plate, 37° C., 10 h
[14] = Aeromonas hydrophila, 96-well plate, 37° C., 10 h
[15] = E. coli BL21, 96-well plate, 37° C., 10 h
[16] = Enterobacter cloacae, 96-well plate, 37° C., 10 h
[17] = Moraxella catarrhalis, 96-well plate, 37° C., 10 h
[18] = Serratia marcescens, 96-well plate, 37° C., 10 h
[19] = Proteus mirabilis, 96-well plate, 37° C., 10 h
[20] = Citrobacter diversus, 96-well plate, 37° C., 10 h
[21] = Klebsiella pneumonia, 96-well plate, 37° C., 10 h

“PRT831 (DGRHCVRRSPCANRNGSCMHRCQVVRGLARCECHVGYQLAADGKACE; listed as Homo sapiens)” was tested, and the “MIC (μg/mL) P. aeruginosa” value (Pseudomonas aeruginosa; [1]) was 12.5 µg/mL, the “MIC (μg/mL) P. vulgaris” value (Proteus vulgaris; [2]) was 25 µg/mL and the “MIC (μg/mL) A. hydrophila” value (Aeromonas hydrophila; [3]) was 25 µg/mL. For the same substance, the “MIC (μg/mL) E. coli BL21” value (E. coli BL21; [4]) was 25 µg/mL, the “MIC (μg/mL) E. cloacae” value (Enterobacter cloacae; [5]) was 12.5 µg/mL and the “MIC (μg/mL) M. catarrhalis” value (Moraxella catarrhalis; [6]) was 12.5 µg/mL. The MIC (E. coli DH5α) was 25 µg/mL, the “MIC (μg/mL) S. marcescens” value (Serratia marcescens; [7]) was 12.5 µg/mL and the “MIC (μg/mL) P. mirabilis” value (Proteus mirabilis; [8]) was 50 µg/mL. The “MIC (μg/mL) C. diversus” value (Citrobacter diversus; [9]) was 50 µg/mL and the “MIC (μg/mL) K. pneumonia” value (Klebsiella pneumonia; [10]) was 25 µg/mL.

With “PRT1370 (GVRSCPGDCRGRGRCESGRCMCWPGYTGRDC; listed as Homo sapiens)” the “MIC against P. aeruginosa” value (Pseudomonas aeruginosa; Pseudomonas aeruginosa, 10 h cultivation at 37° C.) was 25 µg/mL, the “MIC against P. vulgaris” value (Proteus vulgaris; Proteus vulgaris, 10 h cultivation at 37° C.) was 25 µg/mL and the “MIC against A. hydrophila” value (Aeromonas hydrophila; Aeromonas hydrophila, 10 h cultivation at 37° C.) was 25 µg/mL. The “MIC against E. coli BL21” value (E. coli BL21; [4]) was 12.5 µg/mL, the “MIC against E. cloacae” value (Enterobacter cloacae; Enterobacter cloacae, 10 h cultivation at 37° C.) was 25 µg/mL and the “MIC against M. catarrhalis” value (Moraxella catarrhalis; Moraxella catarrhalis, 10 h cultivation at 37° C.) was 25 µg/mL. For the same substance, the MIC (E. coli DH5α) was 25 µg/mL, the “MIC against S. marcescens” value (Serratia marcescens; Serratia marcescens, 10 h cultivation at 37° C.) was 12.5 µg/mL and the “MIC against P. mirabilis” value (Proteus mirabilis; Proteus mirabilis, 10 h cultivation at 37° C.) was 50 µg/mL. The “MIC against C. diversus” value (Citrobacter diversus; Citrobacter diversus, 10 h cultivation at 37° C.) was 12.5 µg/mL and the “MIC against K. pneumonia” value (Klebsiella pneumonia; Klebsiella pneumonia, 10 h cultivation at 37° C.) was 50 µg/mL.

With “PRT1137 (ESNECKMNPCKNNSTCTDLYKSYRCECTSGWTGQNCS; listed as Homo sapiens)” the “MIC P. aeruginosa” value (Pseudomonas aeruginosa; [11]) was 25 µg/mL, the “MIC P. vulgaris” value (Proteus vulgaris; [11]) was 50 µg/mL and the “MIC A. hydrophila” value (Aeromonas hydrophila; [11]) was 50 µg/mL. The “MIC E. coli BL21” value (E. coli BL21; [11]) was 50 µg/mL, the “MIC E. cloacae” value (Enterobacter cloacae; [11]) was 25 µg/mL and the “MIC M. catarrhalis” value (Moraxella catarrhalis; [11]) was 50 µg/mL. For the same substance, the MIC (E. coli DH5α) was 25 µg/mL, the “MIC S. marcescens” value (Serratia marcescens; [11]) was 12.5 µg/mL and the “MIC P. mirabilis” value (Proteus mirabilis; [11]) was 12.5 µg/mL. For the same substance, the “MIC C. diversus” value (Citrobacter diversus; [11]) was 12.5 µg/mL and the “MIC K. pneumonia” value (Klebsiella pneumonia; [11]) was 12.5 µg/mL.

With “PRT29 (PCNCDVHKGFDPNCNKTNGQCHCKEFHYRPRGSDSCLP; listed as Homo sapiens)” the “MIC (μg/mL) P. aeruginosa” value (Pseudomonas aeruginosa; [12]) was 12.5 µg/mL, the “MIC (μg/mL) P. vulgaris” value (Proteus vulgaris; [13]) was 50 µg/mL and the “MIC (μg/mL) A. hydrophila” value (Aeromonas hydrophila; [14]) was 25 µg/mL. For the same substance, the “MIC (μg/mL) E. coli BL21” value (E. coli BL21; [15]) was 25 µg/mL, the “MIC (μg/mL) E. cloacae” value (Enterobacter cloacae; [16]) was 50 µg/mL and the “MIC (μg/mL) M. catarrhalis” value (Moraxella catarrhalis; [17]) was 12.5 µg/mL. For the same substance, the MIC (E. coli DH5α) was 25 µg/mL, the “MIC (μg/mL) S. marcescens” value (Serratia marcescens; [18]) was 12.5 µg/mL and the “MIC (μg/mL) P. mirabilis” value (Proteus mirabilis; [19]) was 25 µg/mL. The “MIC (μg/mL) C. diversus” value (Citrobacter diversus; [20]) was 25 µg/mL and the “MIC (μg/mL) K. pneumonia” value (Klebsiella pneumonia; [21]) was 25 µg/mL.

“PRT1247 (WGARCEHACQCQHGTCHPRSGACRCEPGWWGAQCA; listed as Homo sapiens)” was tested, and the “MIC against P. aeruginosa” value (Pseudomonas aeruginosa; [12]) was 12.5 µg/mL, the “MIC against P. vulgaris” value (Proteus vulgaris; [13]) was 12.5 µg/mL and the “MIC against A. hydrophila” value (Aeromonas hydrophila; [14]) was 12.5 µg/mL. For the same substance, the “MIC against E. coli BL21” value (E. coli BL21; [15]) was 12.5 µg/mL, the “MIC against E. cloacae” value (Enterobacter cloacae; [16]) was 12.5 µg/mL and the “MIC against M. catarrhalis” value (Moraxella catarrhalis; [17]) was 12.5 µg/mL. For the same substance, the MIC (E. coli DH5α) was 50 µg/mL, the “MIC against S. marcescens” value (Serratia marcescens; [18]) was 25 µg/mL and the “MIC against P. mirabilis” value (Proteus mirabilis; [19]) was 25 µg/mL. The “MIC against C. diversus” value (Citrobacter diversus; [20]) was 25 µg/mL and the “MIC against K. pneumonia” value (Klebsiella pneumonia; [21]) was 25 µg/mL.

“PRT1297 (NACLSSPCKNNGTCTQDPVELYRCACPYSYKGKDCT; listed as Homo sapiens)” was tested, and the “MIC against P. aeruginosa” value (Pseudomonas aeruginosa; [12]) was 12.5 µg/mL, the “MIC against P. vulgaris” value (Proteus vulgaris; [13]) was 12.5 µg/mL and the “MIC against A. hydrophila” value (Aeromonas hydrophila; [14]) was 12.5 µg/mL. The “MIC against E. coli BL21” value (E. coli BL21; [15]) was 50 µg/mL, the “MIC against E. cloacae” value (Enterobacter cloacae; [16]) was 50 µg/mL and the “MIC against M. catarrhalis” value (Moraxella catarrhalis; [17]) was 50 µg/mL. For the same substance, the MIC (E. coli DH5α) was 12.5 µg/mL, the “MIC against S. marcescens” value (Serratia marcescens; [18]) was 50 µg/mL and the “MIC against P. mirabilis” value (Proteus mirabilis; [19]) was 25 µg/mL. For the same substance, the “MIC against C. diversus” value (Citrobacter diversus; [20]) was 25 µg/mL and the “MIC against K. pneumonia” value (Klebsiella pneumonia; [21]) was 25 µg/mL.

“PRT437 (DEDECAAGNPCSHSCHNAMGTYYCSCPKGLTIAADGRTCQ; listed as Homo sapiens)” gave an MIC (Pseudomonas aeruginosa; [1]) of 50 µg/mL, an MIC (Proteus vulgaris; [2]) of 25 µg/mL and an MIC (Aeromonas hydrophila; [3]) of 25 µg/mL. It also gave an MIC (E. coli BL21; [4]) of 12.5 µg/mL, an MIC (Enterobacter cloacae; [5]) of 12.5 µg/mL and an MIC (Moraxella catarrhalis; [6]) of 25 µg/mL. For the same substance, the MIC (E. coli DH5α) was 50 µg/mL, the MIC (Serratia marcescens; [7]) was 50 µg/mL and the MIC (Proteus mirabilis; [8]) was 12.5 µg/mL. It also gave an MIC (Citrobacter diversus; [9]) of 50 µg/mL and an MIC (Klebsiella pneumonia; [10]) of 25 µg/mL.
